# Biological target: Dual specificity mitogen-activated protein kinase kinase 2 (Homo sapiens, UniProt P36507)
row,Structure (SMILES),ΔTm
1,COc1nccc(-c2c(-c3ccc(F)cc3)ncn2[C@H]2CC[C@H](O)CC2)n1,0.2 °C
2,CN(C)C[C@@H]1CCn2cc(c3ccccc32)C2=C(C(=O)NC2=O)c2cn(c3ccccc23)CCO1 [RUBOXISTAURIN],0.1 °C
3,Cc1ccc(NC2=CC(=O)c3sc(C)nc3C2=O)cc1,-2 °C

# Biological target: Calcium/calmodulin-dependent protein kinase type II subunit delta (Homo sapiens) (UniProt Q13557)
row,Structure (SMILES),ΔTm
1,COc1nccc(-c2c(-c3ccc(F)cc3)ncn2[C@H]2CC[C@H](O)CC2)n1,0.4 °C
2,Cc1ccc(NC2=CC(=O)c3sc(C)nc3C2=O)cc1,0.1 °C

# Biological target: Serine/threonine-protein kinase PLK1 (Homo sapiens) (UniProt P53350)
row,Structure (SMILES),ΔTm
1,COc1nccc(-c2c(-c3ccc(F)cc3)ncn2[C@H]2CC[C@H](O)CC2)n1,-0.2 °C
2,CN(C)C[C@@H]1CCn2cc(c3ccccc32)C2=C(C(=O)NC2=O)c2cn(c3ccccc23)CCO1 [RUBOXISTAURIN],-0.9 °C
3,Cc1ccc(NC2=CC(=O)c3sc(C)nc3C2=O)cc1,-0.2 °C

# Biological target: T1, Myotonin-protein kinase (Homo sapiens) (UniProt Q09013)
# T1 sequence (whole entry): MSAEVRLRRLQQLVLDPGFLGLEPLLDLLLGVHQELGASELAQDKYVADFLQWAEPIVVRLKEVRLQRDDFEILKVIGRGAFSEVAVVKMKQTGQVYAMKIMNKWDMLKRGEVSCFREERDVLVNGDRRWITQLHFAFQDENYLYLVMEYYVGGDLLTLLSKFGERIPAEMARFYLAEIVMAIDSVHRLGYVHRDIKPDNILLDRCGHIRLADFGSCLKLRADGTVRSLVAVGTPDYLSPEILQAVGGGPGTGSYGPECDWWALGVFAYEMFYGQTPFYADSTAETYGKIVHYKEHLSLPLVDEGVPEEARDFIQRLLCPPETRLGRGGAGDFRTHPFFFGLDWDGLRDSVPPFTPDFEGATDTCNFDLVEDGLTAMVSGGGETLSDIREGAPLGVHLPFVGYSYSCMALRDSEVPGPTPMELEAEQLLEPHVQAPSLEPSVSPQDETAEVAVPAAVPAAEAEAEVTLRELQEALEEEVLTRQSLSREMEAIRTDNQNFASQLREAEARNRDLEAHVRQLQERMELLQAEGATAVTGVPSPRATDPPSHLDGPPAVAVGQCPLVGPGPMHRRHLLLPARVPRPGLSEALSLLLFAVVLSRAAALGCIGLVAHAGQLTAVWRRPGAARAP
row,Structure (SMILES),ΔTm
1,CN(C)C[C@@H]1CCn2cc(c3ccccc32)C2=C(C(=O)NC2=O)c2cn(c3ccccc23)CCO1 [RUBOXISTAURIN],5.3 °C
2,Cc1ccc(NC2=CC(=O)c3sc(C)nc3C2=O)cc1,-2.4 °C

# Biological target: Calcium/calmodulin-dependent protein kinase type 1G (Homo sapiens) (UniProt Q96NX5)
row,Structure (SMILES),ΔTm
1,COc1nccc(-c2c(-c3ccc(F)cc3)ncn2[C@H]2CC[C@H](O)CC2)n1,0.2 °C
2,CN(C)C[C@@H]1CCn2cc(c3ccccc32)C2=C(C(=O)NC2=O)c2cn(c3ccccc23)CCO1 [RUBOXISTAURIN],0.1 °C
3,Cc1ccc(NC2=CC(=O)c3sc(C)nc3C2=O)cc1,-1.4 °C

# Biological target: Calcium/calmodulin-dependent protein kinase type II subunit gamma (Homo sapiens) (UniProt Q13555)
row,Structure (SMILES),ΔTm
1,COc1nccc(-c2c(-c3ccc(F)cc3)ncn2[C@H]2CC[C@H](O)CC2)n1,0.1 °C
2,CN(C)C[C@@H]1CCn2cc(c3ccccc32)C2=C(C(=O)NC2=O)c2cn(c3ccccc23)CCO1 [RUBOXISTAURIN],1.6 °C
3,Cc1ccc(NC2=CC(=O)c3sc(C)nc3C2=O)cc1,-2 °C

# Biological target: T2, Dual specificity mitogen-activated protein kinase kinase 6 (Homo sapiens) (UniProt P52564)
# T2 sequence (whole entry): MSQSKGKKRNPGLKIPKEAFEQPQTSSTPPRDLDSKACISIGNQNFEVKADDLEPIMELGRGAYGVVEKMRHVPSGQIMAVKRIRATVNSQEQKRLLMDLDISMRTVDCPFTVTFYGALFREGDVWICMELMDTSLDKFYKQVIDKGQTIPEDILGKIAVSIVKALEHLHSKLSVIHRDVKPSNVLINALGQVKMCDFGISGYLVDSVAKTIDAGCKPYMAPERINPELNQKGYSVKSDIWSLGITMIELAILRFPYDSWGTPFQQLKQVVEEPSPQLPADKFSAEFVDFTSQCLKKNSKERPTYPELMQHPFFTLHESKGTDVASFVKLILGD
row,Structure (SMILES),ΔTm
1,COc1nccc(-c2c(-c3ccc(F)cc3)ncn2[C@H]2CC[C@H](O)CC2)n1,0 °C
2,CN(C)C[C@@H]1CCn2cc(c3ccccc32)C2=C(C(=O)NC2=O)c2cn(c3ccccc23)CCO1 [RUBOXISTAURIN],0.5 °C
3,Cc1ccc(NC2=CC(=O)c3sc(C)nc3C2=O)cc1,-0.2 °C

# Biological target: Dual specificity protein kinase CLK3 (Homo sapiens) (UniProt P49761)
# Sequence (P49761 whole entry, looked up): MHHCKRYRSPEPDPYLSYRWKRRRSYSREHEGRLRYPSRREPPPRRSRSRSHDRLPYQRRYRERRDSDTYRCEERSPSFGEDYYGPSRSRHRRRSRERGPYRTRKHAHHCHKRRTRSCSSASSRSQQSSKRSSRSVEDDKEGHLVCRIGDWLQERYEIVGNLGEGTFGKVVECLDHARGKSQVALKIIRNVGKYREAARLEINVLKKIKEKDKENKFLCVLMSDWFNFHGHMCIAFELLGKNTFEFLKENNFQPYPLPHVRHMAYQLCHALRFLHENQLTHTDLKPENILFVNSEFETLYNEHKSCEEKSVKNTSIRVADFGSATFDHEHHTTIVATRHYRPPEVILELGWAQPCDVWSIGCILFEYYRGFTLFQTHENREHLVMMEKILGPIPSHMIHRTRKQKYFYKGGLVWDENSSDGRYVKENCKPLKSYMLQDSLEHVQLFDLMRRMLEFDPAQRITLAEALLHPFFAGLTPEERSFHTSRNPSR
row,Structure (SMILES),ΔTm
1,COc1nccc(-c2c(-c3ccc(F)cc3)ncn2[C@H]2CC[C@H](O)CC2)n1,0.1 °C
2,CN(C)C[C@@H]1CCn2cc(c3ccccc32)C2=C(C(=O)NC2=O)c2cn(c3ccccc23)CCO1 [RUBOXISTAURIN],0.3 °C
3,Cc1ccc(NC2=CC(=O)c3sc(C)nc3C2=O)cc1,-0.5 °C

# Biological target: Dual specificity protein kinase CLK2 (Homo sapiens) (UniProt P49760)
# Sequence (P49760 whole entry, looked up): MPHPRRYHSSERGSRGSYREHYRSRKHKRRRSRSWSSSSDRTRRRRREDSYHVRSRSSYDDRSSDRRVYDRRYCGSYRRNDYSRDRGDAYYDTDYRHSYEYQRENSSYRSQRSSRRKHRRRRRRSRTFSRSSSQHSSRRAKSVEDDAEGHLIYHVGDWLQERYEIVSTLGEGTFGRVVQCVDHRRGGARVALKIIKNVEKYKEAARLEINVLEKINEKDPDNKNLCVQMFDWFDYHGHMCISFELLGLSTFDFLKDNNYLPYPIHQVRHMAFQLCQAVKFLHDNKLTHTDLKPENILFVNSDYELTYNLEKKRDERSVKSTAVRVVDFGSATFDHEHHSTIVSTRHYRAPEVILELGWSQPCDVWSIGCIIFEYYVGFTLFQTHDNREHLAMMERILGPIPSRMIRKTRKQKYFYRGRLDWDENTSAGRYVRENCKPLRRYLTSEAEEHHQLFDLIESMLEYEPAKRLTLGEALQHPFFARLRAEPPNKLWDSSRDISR
row,Structure (SMILES),ΔTm
1,COc1nccc(-c2c(-c3ccc(F)cc3)ncn2[C@H]2CC[C@H](O)CC2)n1,0.8 °C
2,CN(C)C[C@@H]1CCn2cc(c3ccccc32)C2=C(C(=O)NC2=O)c2cn(c3ccccc23)CCO1 [RUBOXISTAURIN],4.2 °C
3,Cc1ccc(NC2=CC(=O)c3sc(C)nc3C2=O)cc1,-1 °C

# Biological target: Calcium/calmodulin-dependent protein kinase type II subunit alpha (Homo sapiens) (UniProt Q9UQM7)
# Sequence (Q9UQM7 whole entry): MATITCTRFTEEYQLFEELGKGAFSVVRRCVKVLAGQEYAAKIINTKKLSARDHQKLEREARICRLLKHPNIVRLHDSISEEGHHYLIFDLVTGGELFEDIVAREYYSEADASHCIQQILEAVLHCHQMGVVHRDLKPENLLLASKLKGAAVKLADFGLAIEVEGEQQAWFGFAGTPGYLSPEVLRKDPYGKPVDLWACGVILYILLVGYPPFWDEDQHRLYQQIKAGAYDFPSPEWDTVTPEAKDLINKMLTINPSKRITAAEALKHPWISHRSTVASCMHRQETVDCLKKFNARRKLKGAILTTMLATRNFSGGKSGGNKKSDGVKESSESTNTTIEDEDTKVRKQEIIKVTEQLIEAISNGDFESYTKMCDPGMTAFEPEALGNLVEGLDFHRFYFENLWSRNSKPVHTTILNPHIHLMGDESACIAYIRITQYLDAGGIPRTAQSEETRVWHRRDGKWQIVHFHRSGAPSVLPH
row,Structure (SMILES),ΔTm
1,COc1nccc(-c2c(-c3ccc(F)cc3)ncn2[C@H]2CC[C@H](O)CC2)n1,1.5 °C
2,CN(C)C[C@@H]1CCn2cc(c3ccccc32)C2=C(C(=O)NC2=O)c2cn(c3ccccc23)CCO1 [RUBOXISTAURIN],3.1 °C
3,Cc1ccc(NC2=CC(=O)c3sc(C)nc3C2=O)cc1,-0.7 °C

# Biological target: Mitogen-activated protein kinase 6 (Homo sapiens) (UniProt Q16659)
# Sequence (Q16659 whole entry): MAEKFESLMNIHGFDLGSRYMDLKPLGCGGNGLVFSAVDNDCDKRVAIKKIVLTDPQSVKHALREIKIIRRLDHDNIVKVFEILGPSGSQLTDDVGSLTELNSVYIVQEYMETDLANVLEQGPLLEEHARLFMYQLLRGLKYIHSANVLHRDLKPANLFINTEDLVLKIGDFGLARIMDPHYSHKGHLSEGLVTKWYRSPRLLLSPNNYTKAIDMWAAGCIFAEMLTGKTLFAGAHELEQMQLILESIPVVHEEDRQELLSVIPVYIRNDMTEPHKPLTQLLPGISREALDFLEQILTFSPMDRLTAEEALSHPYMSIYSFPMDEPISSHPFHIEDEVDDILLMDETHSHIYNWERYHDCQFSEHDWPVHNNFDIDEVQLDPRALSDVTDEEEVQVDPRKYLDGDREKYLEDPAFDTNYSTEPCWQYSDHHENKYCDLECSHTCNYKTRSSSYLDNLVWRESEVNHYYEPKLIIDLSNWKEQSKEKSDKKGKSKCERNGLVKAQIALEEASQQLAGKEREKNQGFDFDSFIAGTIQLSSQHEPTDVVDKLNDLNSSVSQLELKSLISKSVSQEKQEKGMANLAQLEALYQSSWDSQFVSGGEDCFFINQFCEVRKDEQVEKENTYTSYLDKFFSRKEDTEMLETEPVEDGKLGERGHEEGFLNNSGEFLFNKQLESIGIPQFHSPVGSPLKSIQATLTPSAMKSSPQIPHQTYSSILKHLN
row,Structure (SMILES),ΔTm
1,COc1nccc(-c2c(-c3ccc(F)cc3)ncn2[C@H]2CC[C@H](O)CC2)n1,0.8 °C
2,CN(C)C[C@@H]1CCn2cc(c3ccccc32)C2=C(C(=O)NC2=O)c2cn(c3ccccc23)CCO1 [RUBOXISTAURIN],0.1 °C
3,Cc1ccc(NC2=CC(=O)c3sc(C)nc3C2=O)cc1,-0.3 °C

# Biological target: Casein kinase I isoform gamma-1 (Homo sapiens) (UniProt Q9HCP0)
# Sequence (Q9HCP0 whole entry, looked up, canonical isoform): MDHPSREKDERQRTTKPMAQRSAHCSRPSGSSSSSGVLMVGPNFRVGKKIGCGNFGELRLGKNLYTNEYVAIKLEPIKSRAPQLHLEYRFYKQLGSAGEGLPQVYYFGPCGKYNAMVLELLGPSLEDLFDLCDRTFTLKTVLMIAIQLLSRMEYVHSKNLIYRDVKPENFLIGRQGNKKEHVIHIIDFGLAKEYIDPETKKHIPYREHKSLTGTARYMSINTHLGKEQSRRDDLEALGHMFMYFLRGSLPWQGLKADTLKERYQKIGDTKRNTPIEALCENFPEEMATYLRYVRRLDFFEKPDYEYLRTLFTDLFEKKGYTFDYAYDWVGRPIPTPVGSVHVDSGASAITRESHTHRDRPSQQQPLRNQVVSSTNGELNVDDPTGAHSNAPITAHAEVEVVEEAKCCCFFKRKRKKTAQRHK
row,Structure (SMILES),ΔTm
1,COc1nccc(-c2c(-c3ccc(F)cc3)ncn2[C@H]2CC[C@H](O)CC2)n1,0.9 °C
2,CN(C)C[C@@H]1CCn2cc(c3ccccc32)C2=C(C(=O)NC2=O)c2cn(c3ccccc23)CCO1 [RUBOXISTAURIN],0.5 °C
3,Cc1ccc(NC2=CC(=O)c3sc(C)nc3C2=O)cc1,-0.6 °C

# Biological target: TRAF2 and NCK-interacting protein kinase (Homo sapiens) (UniProt Q9UKE5)
# Sequence (Q9UKE5 whole entry, looked up): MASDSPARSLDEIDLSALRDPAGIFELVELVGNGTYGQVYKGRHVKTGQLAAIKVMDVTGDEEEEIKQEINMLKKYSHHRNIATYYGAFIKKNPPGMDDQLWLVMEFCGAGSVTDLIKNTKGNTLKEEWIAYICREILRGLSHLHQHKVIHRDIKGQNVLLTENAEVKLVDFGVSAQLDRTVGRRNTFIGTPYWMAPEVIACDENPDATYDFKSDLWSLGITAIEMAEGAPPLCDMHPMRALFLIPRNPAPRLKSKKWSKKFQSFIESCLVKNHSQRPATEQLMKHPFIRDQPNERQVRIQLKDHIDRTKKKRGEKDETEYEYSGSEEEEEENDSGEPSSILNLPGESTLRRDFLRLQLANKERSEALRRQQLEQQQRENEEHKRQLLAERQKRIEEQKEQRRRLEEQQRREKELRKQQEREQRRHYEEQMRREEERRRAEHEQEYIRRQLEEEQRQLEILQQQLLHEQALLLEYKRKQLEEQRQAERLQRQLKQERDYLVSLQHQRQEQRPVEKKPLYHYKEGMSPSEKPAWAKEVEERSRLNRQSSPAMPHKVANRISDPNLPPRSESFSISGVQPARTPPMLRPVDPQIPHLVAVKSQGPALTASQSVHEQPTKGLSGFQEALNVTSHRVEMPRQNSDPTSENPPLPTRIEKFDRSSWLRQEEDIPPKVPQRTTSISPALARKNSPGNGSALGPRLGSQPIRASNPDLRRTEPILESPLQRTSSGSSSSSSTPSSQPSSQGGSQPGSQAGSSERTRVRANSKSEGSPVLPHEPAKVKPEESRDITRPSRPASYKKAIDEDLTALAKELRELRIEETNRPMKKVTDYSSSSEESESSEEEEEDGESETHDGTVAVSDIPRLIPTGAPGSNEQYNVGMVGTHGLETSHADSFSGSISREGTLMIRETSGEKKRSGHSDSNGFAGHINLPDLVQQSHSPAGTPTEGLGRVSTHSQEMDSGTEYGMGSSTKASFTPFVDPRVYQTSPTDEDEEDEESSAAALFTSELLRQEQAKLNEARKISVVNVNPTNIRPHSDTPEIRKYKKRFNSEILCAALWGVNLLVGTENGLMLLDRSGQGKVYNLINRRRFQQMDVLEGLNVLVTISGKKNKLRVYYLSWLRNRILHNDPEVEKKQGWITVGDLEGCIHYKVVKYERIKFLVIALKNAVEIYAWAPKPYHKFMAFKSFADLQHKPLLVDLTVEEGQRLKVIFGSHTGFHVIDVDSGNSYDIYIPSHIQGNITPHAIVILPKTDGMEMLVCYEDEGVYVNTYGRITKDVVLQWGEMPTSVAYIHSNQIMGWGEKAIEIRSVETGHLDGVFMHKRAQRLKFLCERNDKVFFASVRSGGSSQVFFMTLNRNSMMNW
row,Structure (SMILES),ΔTm
1,COc1nccc(-c2c(-c3ccc(F)cc3)ncn2[C@H]2CC[C@H](O)CC2)n1,-0.5 °C
2,CN(C)C[C@@H]1CCn2cc(c3ccccc32)C2=C(C(=O)NC2=O)c2cn(c3ccccc23)CCO1 [RUBOXISTAURIN],-0.3 °C
3,Cc1ccc(NC2=CC(=O)c3sc(C)nc3C2=O)cc1,-1.4 °C

# Biological target: Calcium/calmodulin-dependent protein kinase type II subunit beta (Homo sapiens) (UniProt Q13554)
row,Structure (SMILES),ΔTm
1,CN(C)C[C@@H]1CCn2cc(c3ccccc32)C2=C(C(=O)NC2=O)c2cn(c3ccccc23)CCO1 [RUBOXISTAURIN],0.5 °C
2,Cc1ccc(NC2=CC(=O)c3sc(C)nc3C2=O)cc1,-0.6 °C

# Biological target: Serine/threonine-protein kinase OSR1 (Homo sapiens) (UniProt O95747)
row,Structure (SMILES),ΔTm
1,COc1nccc(-c2c(-c3ccc(F)cc3)ncn2[C@H]2CC[C@H](O)CC2)n1,0.1 °C
2,CN(C)C[C@@H]1CCn2cc(c3ccccc32)C2=C(C(=O)NC2=O)c2cn(c3ccccc23)CCO1 [RUBOXISTAURIN],-0.5 °C
3,Cc1ccc(NC2=CC(=O)c3sc(C)nc3C2=O)cc1,-0.2 °C

# Biological target: Death-associated protein kinase 3 (Homo sapiens) (UniProt O43293)
# Sequence (O43293 whole entry, looked up): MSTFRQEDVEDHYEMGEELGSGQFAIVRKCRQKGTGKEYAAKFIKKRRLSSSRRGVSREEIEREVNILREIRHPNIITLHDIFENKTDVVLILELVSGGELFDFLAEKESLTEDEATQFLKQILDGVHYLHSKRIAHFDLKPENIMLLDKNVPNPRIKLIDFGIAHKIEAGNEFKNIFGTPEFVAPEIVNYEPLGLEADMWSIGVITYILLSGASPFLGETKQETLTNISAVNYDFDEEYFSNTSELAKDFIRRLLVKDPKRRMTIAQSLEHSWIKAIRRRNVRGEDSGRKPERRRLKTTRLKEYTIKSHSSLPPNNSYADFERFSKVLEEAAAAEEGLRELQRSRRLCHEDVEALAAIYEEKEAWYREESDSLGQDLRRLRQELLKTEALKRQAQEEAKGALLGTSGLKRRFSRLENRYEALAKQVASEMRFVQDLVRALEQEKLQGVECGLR
row,Structure (SMILES),ΔTm
1,COc1nccc(-c2c(-c3ccc(F)cc3)ncn2[C@H]2CC[C@H](O)CC2)n1,0.4 °C
2,CN(C)C[C@@H]1CCn2cc(c3ccccc32)C2=C(C(=O)NC2=O)c2cn(c3ccccc23)CCO1 [RUBOXISTAURIN],1.1 °C
3,Cc1ccc(NC2=CC(=O)c3sc(C)nc3C2=O)cc1,-0.2 °C

# Biological target: T3, Serine/threonine-protein kinase VRK1 (Homo sapiens) (UniProt Q99986)
# T3 sequence (whole entry): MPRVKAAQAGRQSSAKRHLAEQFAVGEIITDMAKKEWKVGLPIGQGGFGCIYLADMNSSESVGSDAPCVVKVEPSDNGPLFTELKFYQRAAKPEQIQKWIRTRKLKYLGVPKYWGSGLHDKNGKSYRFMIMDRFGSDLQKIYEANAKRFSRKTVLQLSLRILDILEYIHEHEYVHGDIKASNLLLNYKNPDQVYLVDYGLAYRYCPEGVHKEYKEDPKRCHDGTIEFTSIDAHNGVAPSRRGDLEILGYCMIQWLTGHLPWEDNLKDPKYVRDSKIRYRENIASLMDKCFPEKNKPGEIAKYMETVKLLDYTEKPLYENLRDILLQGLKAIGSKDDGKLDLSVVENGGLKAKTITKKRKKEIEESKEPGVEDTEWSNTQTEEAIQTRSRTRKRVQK
row,Structure (SMILES),ΔTm
1,COc1nccc(-c2c(-c3ccc(F)cc3)ncn2[C@H]2CC[C@H](O)CC2)n1,1.2 °C
2,CN(C)C[C@@H]1CCn2cc(c3ccccc32)C2=C(C(=O)NC2=O)c2cn(c3ccccc23)CCO1 [RUBOXISTAURIN],0.8 °C

# Biological target: Mitogen-activated protein kinase 3 (Homo sapiens, UniProt P27361)
# Sequence (P27361 whole entry): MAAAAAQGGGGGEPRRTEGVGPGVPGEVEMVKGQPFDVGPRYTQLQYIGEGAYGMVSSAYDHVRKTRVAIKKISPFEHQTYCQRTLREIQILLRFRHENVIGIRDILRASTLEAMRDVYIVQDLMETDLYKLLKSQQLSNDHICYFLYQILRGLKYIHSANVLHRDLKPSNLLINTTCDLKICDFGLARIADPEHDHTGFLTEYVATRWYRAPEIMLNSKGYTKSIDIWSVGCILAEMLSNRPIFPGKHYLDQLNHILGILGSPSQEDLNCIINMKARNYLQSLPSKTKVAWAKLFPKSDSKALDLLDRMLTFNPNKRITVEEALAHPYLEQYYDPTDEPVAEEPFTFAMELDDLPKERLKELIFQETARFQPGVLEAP
row,Structure (SMILES),ΔTm
1,COc1nccc(-c2c(-c3ccc(F)cc3)ncn2[C@H]2CC[C@H](O)CC2)n1,0 °C
2,CN(C)C[C@@H]1CCn2cc(c3ccccc32)C2=C(C(=O)NC2=O)c2cn(c3ccccc23)CCO1 [RUBOXISTAURIN],0.5 °C
3,Cc1ccc(NC2=CC(=O)c3sc(C)nc3C2=O)cc1,-1.5 °C
